Experimental data reported in patent publication US20030134859A1 (SANKYO COMPANY, LIMITED, priority 2000, published 2003).

What was measured:
[1] = tested on: Mouse preadipocyte strain 3T3-L1; assay: Inhibition of differentiation as an indication of acetic acid uptake; format: cell-based; details: control (0.01% dimethylsulfoxide) = 100%; for activity at 0.1 µM: Mus musculus, 3T3-L1, 0.1 μM test substance, read-out: Rate of Uptake (%) of [2-14C] acetic acid; for Rate of Uptake (%) of [2-14C] acetic acid: 0.1 μM test substance
Procedure, shortened: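 Confluent 3T3-L1 cells induced to differentiate for 4 days (insulin, IBMX, dexamethasone, 5% FBS) with test compound at 0.1 μM final or 0.01% DMSO, then 2 days in insulin maintenance medium, at 37 °C, 10% CO2. [2-14C]acetic acid uptake over 1 hr counted by scintillation; expressed as % of DMSO control.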

[2] = tested on: human colon cancer cells COL-2-JCK; assay: Inhibition of colony forming activity in human colon cancer cells; format: cell-based; details: 1 μM test compound, 10 days, sum of colony areas vs control; for inhibition at 1 µM: Homo sapiens, 240 h, read-out: Inhibition Rate (%) against the colony forming activity
Description: For the medium to culture the human colon cancer cells, D-MEM/F-12 medium containing inactivated bovine fetal serum at a concentration of 10% (GIBCO) was used. The human colon cancer cells COL-2-JCK (purchased from Institute for Experimental Animals) grown in mass formation in a plastic dish for the cell culture with an inner diameter of 100 mm were stripped off from the dish by using EDTA (ethylenediaminetetraacetic acid) and 0.05% trypsin solution. Then, a cell dilution solution was prepared at a concentration of 100 cells/mL solution which was diluted with the medium (D-MEM/F-12).
Three (3) mL of the cell solution were inoculated in each well of a 6-well plastic plate (300 cells/well). The test compound that was dissolved in DMSO solution so as to be a final concentration of 1 μM of the test compound and that of DMSO solution of 0.1% was added to each well. DMSO solution alone was added into the well for the control so as to be a final concentration of 0.1%.
The cells in each well were cultured for 10 days at 37° C. in the presence of 5% CO2. After the culturing was finalised, each well was washed once with Dulbecco-phosphate-buffer-saline solution (bivalent anion). Then, 1.5 ml of neutral buffered formalin solution containing 0.02% crystal violet was added to each well and the plate was kept stationary for 5 min for fixation and staining the cells. After fixation and staining, the cells were washed with water and were air-dried. Then the sum of the colony area (mm^2) of the stained cancer cells was calculated by using an image analyzer PCA-11 (SystemScience). From the calculated values, the inhibition rate (%) of the compound against the colony forming activity was obtained based on the following equation.
Inhibition Rate (%) against the colony forming activity=(1−A/B)×100
A: Sum of Colony Areas in the Group Treated with 1 μM of the Test Compound
B: Sum of Colony Areas in the Control Group

[3] = tested on: Rat white adipocytes; assay: Stimulation of differentiation of the adipocytes (Oil Red O); format: cell-based; details: 100 nM test compound, 5 days, Oil Red O ABS550, control = 100%, blank = 0%, Table 7; for activity at 0.1 µM: Rattus norvegicus, Adipocyte, 120 h, read-out: Rate of Differentiation (%)
Procedure, shortened: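 Rat white adipocytes, 5,000 cells/well, cultured 5 days in differentiation-inducing medium with test compound at final 100 nM (0.1% DMSO). Cells fixed, stained with Oil Red O, dye extracted in DMSO and read at 550 nm; differentiation rate expressed relative to vehicle control (100%) and cell-free blank (0%).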

[4] = tested on: leptin production; assay: Enhancing activity for leptin production in adipocytes (ELISA); format: cell-based, rat; details: 24 hr, leptin concentration as % of control group
Procedure, shortened: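 Collagenase-dispersed epididymal adipocytes from 6-week-old male Wistar Imamichi rats, cultured in DMEM/F-12 (1:1) with test compound at final 1 µM, 100 nM, 10 nM or 1 nM (0.1% DMSO) for 24 h at 37 °C, 5% CO2. Leptin in filtrate measured by ELISA; activity = treated/DMSO-control leptin × 100 (%).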

[5] = tested on: Rat white adipocytes; assay: Inhibition of the differentiation of adipocytes (Oil Red O); format: cell-based; details: Rattus norvegicus, Adipocyte, 120 h, 100 nM test compound; 5 days; Oil Red O ABS550; control = 100%, blank = 0%; Table 3; read-out: Rate of Differentiation (%)
Procedure, shortened: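 Rat white preadipocytes, 5,000 cells/well, given differentiation medium with compound at 100 nM final (0.1% DMSO) for 5 days at 37 °C. Lipid stained with Oil Red O, eluted in DMSO, read at 550 nm; differentiation % relative to DMSO control (100%) and blank (0%).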

Row | SMILES | activity at 0.1 µM [1] [%] | inhibition at 1 µM [2] [%] | activity at 0.1 µM [3] [%] | other results
1 | Cc1cccc(NC(=O)c2cc([N+](=O)[O-])ccc2Cl)c1 [Example 11, N-(3-Methylphenyl)-(2-chloro-5-nitrophenyl)carboxamide] | 67.3 | 15 | – | –
2 | CCc1cccc(NC(=O)c2cc([N+](=O)[O-])ccc2Cl)c1 [Example 14, N-(3-Ethylphenyl)-(2-chloro-5-nitrophenyl)carboxamide] | 82.1 | 16 | 121 | –
3 | CCCCOc1ccc(NC(=O)c2cc([N+](=O)[O-])ccc2Cl)cc1 [Example 17, N-(4-Butyloxyphenyl)-(2-chloro-5-nitrophenyl)carboxamide] | 91.9 | 30 | 114 | –
4 | O=C(Nc1nc2ccccc2s1)c1cc([N+](=O)[O-])ccc1Cl [Example 33, N-(Benzothiazol-2-yl)-(2-chloro-5-nitrophenyl)carboxamide] | 86.1 | 60 | 127 | –
5 | CC(C)(C)OC(=O)Nc1ccc(NC(=O)c2cc([N+](=O)[O-])ccc2Cl)cc1 [Example 45, N-[4-(tert-Butyloxycarbonylaminophenyl)]-(2-chloro-5 nitrophenyl)carboxamide] | – | – | – | Rate of Uptake (%) of [2-14C] acetic acid [1]: 68.9%; Inhibition Rate (%) against the colony forming activity [2]: 32.0%
6 | O=C(Nc1cccc2ncccc12)c1cc([N+](=O)[O-])ccc1Cl [Example 56, N-(5-Quinolinyl)-(2-chloro-5-nitrophenyl)carboxamide] | 32.4 | 6 | 114 | –
7 | O=C(Nc1nc2c(Cl)cccc2s1)c1cc([N+](=O)[O-])ccc1Cl [Example 69, N-(4-Chlorobenzothiazol-2-yl)-(2-chloro-5-nitrophenyl)carboxamide] | 57 | 84 | 135 | –
8 | O=C(Nc1cc(-c2ccccc2)[nH]n1)c1cc([N+](=O)[O-])ccc1Cl [Example 72, N-(5-Phenylpyrazol-3-yl)-(2-chloro-5-nitrophenyl)carboxamide] | 76.7 | 39 | 124 | –
9 | O=C(Nc1ccc(S(=O)(=O)Nc2ncccn2)cc1)c1cc([N+](=O)[O-])ccc1Cl [Example 95, N-[4-[(Pyrimidin-2-yl)aminosulfonyl]phenyl]-(2-chloro-5-nitrophenyl)carboxamide] | 86.3 | 1 | 115 | –
10 | Cc1cc(NS(=O)(=O)c2ccc(NC(=O)c3cc([N+](=O)[O-])ccc3Cl)cc2)nc(C)n1 [Example 98, N-[[4-(2,6-Dimethylpyrimidin-4-yl)aminosulfonyl]phenyl]-(2-chloro-5-nitrophenyl)carboxamide] | – | – | – | Facilitating activity to produce leptin ([4]; 1 μM): 117.0%; Facilitating activity to produce leptin ([4]; 100 nm): 110.1%; Rate of Uptake (%) of [2-14C] acetic acid [1]: 89.1%; Inhibition Rate (%) against the colony forming activity [2]: 25.0%
11 | O=C(Nc1ccc(S(=O)(=O)Nc2ccccn2)cc1)c1cc([N+](=O)[O-])ccc1Cl [Example 100, N-[4-[(Pyridin-2-yl)aminosulfonyl]phenyl]-(2-chloro-5-nitrophenyl)carboxamide] | – | 50 | – | –
12 | COC(=O)c1cccc(NC(=O)c2cc([N+](=O)[O-])ccc2Cl)c1 [Example 143, Methyl 3-(2-chloro-5-nitrobenzoylamino)benzoate] | 60.1 | 25 | – | activity at 0.1 µM [5]: 84.9%
13 | Cl.O=C(Nc1ccc(-c2ccccn2)cc1)c1cc([N+](=O)[O-])ccc1Cl [Example 147, N-[4-(Pyridin-2-yl)phenyl]-(2-chloro-5-nitrophenyl)carboxamide Hydrochloride] | – | 19 | – | Rate of Uptake (%) of [2-14C] acetic acid [1]: 76.2%; Rate of Differentiation (%) [3]: 115.5%
